Like-named read-outs stand apart in the source and are kept apart here.
Assays:
[1] = target: T1, intracellular phosphorylation of EGFR in NCI-H1975 cell line that harbors the EGFR L858R T790M mutations (Homo sapiens, UniProt P00533, L858R/T790M); experiment: NCI-H1975 pEGFR AlphaLISA assay; format: cell-based; conditions: NCI-H1975 cells (EGFR L858R T790M), p-EGFR (Tyr1068), 4-5 hours incubation; read-out: Ext pEGFR H1975 GMean IC50 (nM) Protocol: @Pharmaron AlphaLISA (Num)
T1 construct: NCI-H1975 cell line that harbors the EGFR L858R T790M mutations (ATCC, CRL-5908); host or cells: NCI-H1975
T1 sequence (P00533 25-1210 T790M/L858R): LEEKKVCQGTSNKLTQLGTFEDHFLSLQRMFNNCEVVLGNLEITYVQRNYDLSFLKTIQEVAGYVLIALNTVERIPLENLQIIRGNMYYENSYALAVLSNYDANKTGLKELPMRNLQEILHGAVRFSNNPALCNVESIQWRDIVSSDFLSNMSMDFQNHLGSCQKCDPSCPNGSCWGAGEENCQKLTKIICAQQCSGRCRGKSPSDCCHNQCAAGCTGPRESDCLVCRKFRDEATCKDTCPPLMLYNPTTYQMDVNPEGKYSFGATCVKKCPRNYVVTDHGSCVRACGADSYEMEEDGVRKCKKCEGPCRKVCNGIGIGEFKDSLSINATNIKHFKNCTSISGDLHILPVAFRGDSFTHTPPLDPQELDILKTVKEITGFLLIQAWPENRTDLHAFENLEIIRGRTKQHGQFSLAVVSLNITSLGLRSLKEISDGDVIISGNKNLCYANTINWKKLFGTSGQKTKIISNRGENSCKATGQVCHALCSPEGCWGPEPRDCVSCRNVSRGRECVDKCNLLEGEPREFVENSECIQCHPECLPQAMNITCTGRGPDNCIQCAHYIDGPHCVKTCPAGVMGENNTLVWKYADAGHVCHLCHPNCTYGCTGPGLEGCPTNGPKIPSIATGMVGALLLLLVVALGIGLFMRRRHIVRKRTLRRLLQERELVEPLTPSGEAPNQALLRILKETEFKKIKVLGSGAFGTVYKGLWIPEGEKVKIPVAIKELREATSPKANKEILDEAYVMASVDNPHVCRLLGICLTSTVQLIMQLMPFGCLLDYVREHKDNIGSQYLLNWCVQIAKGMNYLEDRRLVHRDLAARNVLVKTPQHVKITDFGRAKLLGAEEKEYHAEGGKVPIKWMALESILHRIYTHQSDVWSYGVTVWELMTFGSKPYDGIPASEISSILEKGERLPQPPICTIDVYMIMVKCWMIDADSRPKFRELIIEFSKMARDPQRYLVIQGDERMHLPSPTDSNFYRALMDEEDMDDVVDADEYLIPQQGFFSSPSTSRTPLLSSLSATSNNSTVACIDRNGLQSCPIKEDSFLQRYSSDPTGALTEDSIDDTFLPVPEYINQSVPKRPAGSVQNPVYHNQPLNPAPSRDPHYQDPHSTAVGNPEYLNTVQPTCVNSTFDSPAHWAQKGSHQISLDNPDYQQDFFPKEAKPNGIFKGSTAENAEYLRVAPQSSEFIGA
Experimental: On the next day, the test compounds and DMSO control were added into H1975 cell plate followed by incubation at 37C/5% CO2 for 4-5 hours. […] Then 5 μL of a donor bead mix was added to each well followed by overnight incubation at room temperature in dark. On the next day, the plate was read at a compatible plate reader to obtain pEGFR signal. Percent of pEGFR inhibition was plotted against log concentration of compounds to generate IC50 values.

EGFR (L858R T790M C797S) = target: T2, EGFR (L858R T790M C797S) (Homo sapiens, UniProt P00533, C797S/L858R/T790M); experiment: Biochemical EGFR inhibition assay (Caliper mobility shift), EGFR LRTMCS
T2 construct: purchased SignalChem E10-122VG
T2 sequence (P00533 25-1210 T790M/C797S/L858R): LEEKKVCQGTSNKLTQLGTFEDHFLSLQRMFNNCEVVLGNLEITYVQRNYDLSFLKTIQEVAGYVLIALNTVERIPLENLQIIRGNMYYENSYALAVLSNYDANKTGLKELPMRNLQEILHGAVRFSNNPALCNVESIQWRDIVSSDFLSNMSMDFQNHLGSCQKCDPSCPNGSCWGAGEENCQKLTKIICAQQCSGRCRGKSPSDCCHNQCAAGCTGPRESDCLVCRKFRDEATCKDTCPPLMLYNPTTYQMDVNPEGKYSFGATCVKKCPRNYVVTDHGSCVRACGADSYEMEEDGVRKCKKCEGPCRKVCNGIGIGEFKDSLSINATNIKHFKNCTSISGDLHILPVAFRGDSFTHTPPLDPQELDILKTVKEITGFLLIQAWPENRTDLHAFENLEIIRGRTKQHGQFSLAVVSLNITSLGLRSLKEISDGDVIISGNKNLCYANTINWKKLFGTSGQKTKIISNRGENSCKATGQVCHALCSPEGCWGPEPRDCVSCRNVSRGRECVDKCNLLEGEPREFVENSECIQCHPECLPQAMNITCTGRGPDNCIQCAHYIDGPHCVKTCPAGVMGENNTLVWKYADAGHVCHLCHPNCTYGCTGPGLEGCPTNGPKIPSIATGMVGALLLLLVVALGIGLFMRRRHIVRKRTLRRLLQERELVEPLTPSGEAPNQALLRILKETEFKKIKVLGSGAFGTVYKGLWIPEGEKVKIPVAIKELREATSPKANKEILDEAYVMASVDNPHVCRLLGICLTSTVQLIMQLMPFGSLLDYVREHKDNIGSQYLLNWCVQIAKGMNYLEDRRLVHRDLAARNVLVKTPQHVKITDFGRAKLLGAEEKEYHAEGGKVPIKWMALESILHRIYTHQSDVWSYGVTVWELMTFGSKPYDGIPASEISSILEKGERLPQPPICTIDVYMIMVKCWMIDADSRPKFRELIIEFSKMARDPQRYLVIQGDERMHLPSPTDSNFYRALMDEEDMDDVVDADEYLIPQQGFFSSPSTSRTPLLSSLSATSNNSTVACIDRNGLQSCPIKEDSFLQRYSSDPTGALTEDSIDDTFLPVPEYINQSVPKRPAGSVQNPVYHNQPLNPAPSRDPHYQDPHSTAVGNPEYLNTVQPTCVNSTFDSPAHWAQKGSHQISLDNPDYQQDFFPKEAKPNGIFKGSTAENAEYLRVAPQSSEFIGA
Method in brief: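 Caliper mobility shift read-out: product and substrate peptides separated by electrophoresis and quantified. Reactions at 25° C. taken to 10–20% peptide phosphorylation, quenched with 35 mM EDTA. Apparent IC50 from percent activity vs log [compound].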

[2] = LRTMCS (PH) IC50 (nM) @ 1 mM ATP (Num), EGFR LRTMCS mutant

Row | SMILES | IC50 [1] | IC50 (EGFR (L858R T790M C797S); [2]) | IC50 (EGFR (L858R T790M C797S); read-out: LRTMCS (PH) IC50 (nM) @ 1 mM ATP (Num), EGFR LRTMCS mutant)
1 | CO[C@@H]1CCN(c2cc(Nc3cc4c(C(C)C)ccc(N5CC(n6ccnn6)C5)c4cn3)ccn2)C[C@@H]1O (single isomer, unassigned) [Example 126, (3S,4R)-1-(4-((8-(3-(1H-1,2,3-triazol-1-yl)azetidin-1-yl)-5-isopropylisoquinolin-3-yl)amino)pyridin-2-yl)-4-methoxypiperidin-3-ol or (3R,4S)-1-(4-((8-(3-(1H-1,2,3-triazol-1-yl)azetidin-1-yl)-5-isopropylisoquinolin-3-yl)amino)pyridin-2-yl)-4-methoxypiperidin-3-ol] | 10 to 20 nM | < 15 nM | 
2 | CC(C)c1cnc(N2CC[C@H]2C(F)F)c2cnc(Nc3ccnc(N4CC[C@@H](O)[C@@](C)(F)C4)n3)cc12 (single isomer, unassigned) [Example 204, (3S,4R)-1-(4-((8-((S)-2-(difluoromethyl)azetidin-1-yl)-5-isopropyl-2,7-naphthyridin-3-yl)amino)pyrimidin-2-yl)-3-fluoro-3-methylpiperidin-4-ol or (3S,4R)-1-(4-((8-((R)-2-(difluoromethyl)azetidin-1-yl)-5-isopropyl-2,7-naphthyridin-3-yl)amino)pyrimidin-2-yl)-3-fluoro-3-methylpiperidin-4-ol] | 10 to 20 nM | < 15 nM | 
3 | CO[C@H]1CCN(c2nccc(Nc3cc4c(C(C)C)cnc(N5CCC56CN(C)C6)c4cn3)n2)C[C@@]1(C)F (single isomer, unassigned) [Example 43, N-(2-((3R,4S)-3-fluoro-4-methoxy-3-methylpiperidin-1-yl)pyrimidin-4-yl)-5-isopropyl-8-(6-methyl-1,6-diazaspiro[3.3]heptan-1-yl)-2,7-naphthyridin-3-amine or N-(2-((3S,4R)-3-fluoro-4-methoxy-3-methylpiperidin-1-yl)pyrimidin-4-yl)-5-isopropyl-8-(6-methyl-1,6-diazaspiro[3.3]heptan-1-yl)-2,7-naphthyridin-3-amine] | > 50 nM | 15 to 20 nM | 
4 | CC(C)c1ccc(N2CC[C@H]2CO)c2cnc(Nc3ccnc(N4CC[C@@H](O)[C@@](C)(F)C4)n3)cc12 [Example 105, (3S,4R)-3-fluoro-1-(4-((8-((S)-2-(hydroxymethyl)azetidin-1-yl)-5-isopropylisoquinolin-3-yl)amino)pyrimidin-2-yl)-3-methylpiperidin-4-ol] | 20 to 30 nM | < 15 nM | 
5 | C[C@H](CC#N)c1cnc(N2CC[C@H]2C)c2cnc(Nc3ccnc(N4CC[C@@H](O)[C@@](C)(F)C4)n3)cc12 (single isomer, unassigned) [Example 37, (R)-3-(6-((2-((3S,4R)-3-fluoro-4-hydroxy-3-methylpiperidin-1-yl)pyrimidin-4-yl)amino)-1-((R)-2-methylazetidin-1-yl)-2,7-naphthyridin-4-yl)butanenitrile or (S)-3-(6-((2-((3S,4R)-3-fluoro-4-hydroxy-3-methylpiperidin-1-yl)pyrimidin-4-yl)amino)-1-((R)-2-methylazetidin-1-yl)-2,7-naphthyridin-4-yl)butanenitrile] | 10 to 20 nM |  | < 15 nM
6 | CC(C)c1cnc(N2CCC23CNC3)c2cnc(Nc3ccnc(N4CC[C@@]5(CCO5)C(F)(F)C4)n3)cc12 (single isomer, unassigned) [Example 191, (R)—N-(2-(5,5-difluoro-1-oxa-7-azaspiro[3.5]nonan-7-yl)pyrimidin-4-yl)-5-isopropyl-8-(1,6-diazaspiro[3.3]heptan-1-yl)-2,7-naphthyridin-3-amine or (S)—N-(2-(5,5-difluoro-1-oxa-7-azaspiro[3.5]nonan-7-yl)pyrimidin-4-yl)-5-isopropyl-8-(1,6-diazaspiro[3.3]heptan-1-yl)-2,7-naphthyridin-3-amine] | > 50 nM | < 15 nM | 
7 | CC(C)c1ccc(N2CC(c3nncn3C)C2)c2cnc(Nc3ccnc(N4CC[C@@H](O)[C@@](C)(F)C4)n3)cc12 [Example 112, (3S,4R)-3-fluoro-1-(4-((5-isopropyl-8-(3-(4-methyl-4H-1,2,4-triazol-3-yl)azetidin-1-yl)isoquinolin-3-yl)amino)pyrimidin-2-yl)-3-methylpiperidin-4-ol] | 10 to 20 nM | < 15 nM | 
8 | CC(C)c1cnc(N2CC[C@H]2C)c2cnc(Nc3ccnc(N4CC[C@@H](OCCO)[C@@H](F)C4)n3)cc12 [Example 142, 2-(((3S,4R)-3-fluoro-1-(4-((5-isopropyl-8-((R)-2-methylazetidin-1-yl)-2,7-naphthyridin-3-yl)amino)pyrimidin-2-yl)piperidin-4-yl)oxy)ethan-1-ol] | < 10 nM | < 15 nM | 
9 | CC(C)c1nnc(N2CCCC2)c2cnc(Nc3ccnc(N4CC[C@@H](O)[C@@](C)(F)C4)n3)cc12 [Example 114, (3S,4R)-3-fluoro-1-(4-((1-isopropyl-4-(pyrrolidin-1-yl)pyrido[3,4-d]pyridazin-7-yl)amino)pyrimidin-2-yl)-3-methylpiperidin-4-ol] | > 50 nM | 30 to 100 nM | 

Now from value to compound:

Row | IC50 [1] | IC50 (EGFR (L858R T790M C797S); [2]) | IC50 (EGFR (L858R T790M C797S); read-out: LRTMCS (PH) IC50 (nM) @ 1 mM ATP (Num), EGFR LRTMCS mutant) | SMILES
10 | < 10 nM | < 15 nM |  | Cc1nnc(C2CN(c3ccc(C(C)C)c4cc(Nc5ccnc(N6CC[C@@H](O)[C@@](C)(F)C6)n5)ncc34)C2)o1 [Example 104, (3S,4R)-3-fluoro-1-(4-((5-isopropyl-8-(3-(5-methyl-1,3,4-oxadiazol-2-yl)azetidin-1-yl)isoquinolin-3-yl)amino)pyrimidin-2-yl)-3-methylpiperidin-4-ol]
11 | 10 to 20 nM | < 15 nM |  | CC(C)c1cnc(N2CC[C@@H]2C)c2cnc(Nc3ccnc(N4CC[C@@H](O)[C@@H](F)C4)n3)cc12 (single isomer, unassigned) [Example 159, (3S,4R)-3-fluoro-1-(4-((5-isopropyl-8-((S)-2-methylazetidin-1-yl)-2,7-naphthyridin-3-yl)amino)pyrimidin-2-yl)piperidin-4-ol or (3S,4R)-3-fluoro-1-(4-((5-isopropyl-8-((R)-2-methylazetidin-1-yl)-2,7-naphthyridin-3-yl)amino)pyrimidin-2-yl)piperidin-4-ol]
12 | < 10 nM | < 15 nM |  | CC(C)c1cnc(N2CC(n3ccnn3)C2)c2cnc(Nc3ccnc(N4CC[C@@H](O)[C@@](C)(F)C4)n3)cc12 [Example 89, (3S,4R)-1-(4-((8-(3-(1H-1,2,3-triazol-1-yl)azetidin-1-yl)-5-isopropyl-2,7-naphthyridin-3-yl)amino)pyrimidin-2-yl)-3-fluoro-3-methylpiperidin-4-ol]
13 | 10 to 20 nM | < 15 nM |  | CC(C)c1cnc(N2C[C@H](O)[C@H]2C)c2cnc(Nc3ccnc(N4CC[C@H](O)[C@H](F)C4)n3)cc12 [Example 143, (3R,4S)-3-fluoro-1-(4-((8-((2R,3S)-3-hydroxy-2-methylazetidin-1-yl)-5-isopropyl-2,7-naphthyridin-3-yl)amino)pyrimidin-2-yl)piperidin-4-ol]
14 | > 50 nM | < 15 nM |  | CC(C)c1cnc(-c2nnc(C(C)(C)O)o2)c2cnc(Nc3ccnc(N4CC[C@@H](O)[C@@](C)(F)C4)n3)cc12 [Example 27, (3S,4R)-3-fluoro-1-(4-((8-(5-(2-hydroxypropan-2-yl)-1,3,4-oxadiazol-2-yl)-5-isopropyl-2,7-naphthyridin-3-yl)amino)pyrimidin-2-yl)-3-methylpiperidin-4-ol]
